Measurements taken from PMC6537213, “Ellagic acid microspheres restrict the growth of Babesia and Theileria in vitro and Babesia microti in vivo” (Parasites & Vectors, 2019).
Where “and” joins values, the source holds several entries; their conditions need not be identical. Identical values can stand only once.

What was measured:
[1] = test system: B. divergens (Germany strain); test: in vitro growth inhibition assay (SYBR Green I fluorescence), single drug and 1:1 combination; format: cell-based, Babesia divergens; conditions: for IC50: B. divergens in vitro culture, 4 days
Procedure: (§1) A microaerophilic stationary-phase culture system was used to maintain Babesia parasite cultures for a long time. Briefly, B. caballi (USDA strain) was grown using equine red blood cells (RBCs) in GIT medium supplemented with 40% equine serum. Theileria equi (USDA strain) was grown in equine RBCs in Medium 199 (M199; Sigma-Aldrich, Tokyo) supplemented with 40% equine serum, and hypoxanthine (MP Biomedicals, Santa Ana, CA, USA) at a final concentration of 13.6 μg/ml was used as a vital supplement. Babesia bovis (Texas strain) and B. bigemina (Argentina strain) were grown in bovine RBCs in M199 medium supplemented with 40% bovine serum. Meanwhile, B. divergens (Germany strain) was grown in bovine RBCs in medium RPMI 1640 (Sigma-Aldrich, Tokyo) supplemented with 40% bovine serum. All media included 60 U/ml penicillin G, 60 μg/ml streptomycin and 0.15 μg/ml amphotericin B (Sigma-Aldrich, St. Louis, MO, USA) to prevent bacterial contamination. The cultures were incubated at 37 °C in a humidified chamber with an atmosphere of 5% CO2, 5% O2 and 90% N2. Babesia microti (Munich strain) was recovered from − 80 °C stock, intraperitoneally injected in two 8-week old female BALB/c mice (Clea Japan, Tokyo, Japan), and the parasitemia was monitored every 2 days. The mice were euthanized using an anesthesia system containing isoflurane after parasitemia reached approximately 30%, and blood was collected by cardiac puncture to initiate the in vivo experiment. The animal experiment was conducted in accordance with the Regulations for Animal Experiments of Obihiro University of Agriculture and Veterinary Medicine, Japan (animal experiment accession number: 290168).
(§2) Assays were performed in accordance with the previously described protocol. Briefly, B. bovis, B. bigemina, B. divergens, B. caballi and T. equi cultures were harvested and adjusted to 1% parasitemia with fresh RBCs to start the inhibition assay. The assays were carried out using 96-well microtiter plates where only the 60 inner wells were used, while the peripheral wells were filled with sterile distillate water to reduce evaporation during incubation. In five 96-well plates, a volume of 2.5 µl each of B. bigemina- and B. bovis-iRBCs and 5 µl each of B. divergens-, B. caballi- and T. equi-iRBCs were added to each well in triplicate and mixed with a culture medium containing the drug concentrations to a total volume of 100 µl. Various concentrations of EA, β-CD EA, APSP EA, DA, CF and AQ were dissolved in a culture medium using two-fold dilution. Wells containing DMSO at a final concentration of 0.4% and iRBCs were used as a positive control, while wells with non-infected RBCs and culture medium were used as a negative control. Additionally, a drug combination assay was performed in parallel with the single drug assay at a constant ratio of 1:1, as described previously. […] The plates were incubated in a humidified incubator with 5% CO2, 5% O2 and 90% N2 for 4 days without changing the medium. On day 4, 100 µl of a lysis buffer containing 2 × SG1 was added to each well. The plates were wrapped with aluminum foil to avoid direct light exposure and incubated at room temperature. After 6 h, fluorescence values were measured using a fluorescence spectrophotometer (Fluoroskan Ascent; Thermo LabSystems, Oceanside, CA, USA) with excitation and emission wavelengths of 485 and 518 nm, respectively. The fluorescence data were subtracted from the negative control and used to calculate the IC50. […]

[2] = test system: mouse embryonic fibroblast (NIH/3T3) cell line; test: cytotoxicity assay (CCK-8); format: cell-based; conditions: for inhibition of cell viability: NIH/3T3; for EC50: NIH/3T3 cells, 24 h exposure, CCK-8
Procedure: (§3) The MDBK cell line was maintained in 75 cm^2 culture flasks with Minimum Essential Medium Eagle (MEM; Gibco, Grand Island, NY, USA), while Dulbecco’s Modified Eagle’s Medium (DMEM; […] Each medium was supplemented with 10% fetal bovine serum, 0.5% penicillin/streptomycin (Gibco), and an additional 1% glutamine. Every 3 to 4 days, the medium was changed, and the cells were incubated until approximately 80% confluent. The cells were free from mycoplasma contamination after being checked by staining with 4,6-diamidino-2-phenylindole dihydrochloride (DAPI; Sigma-Aldrich, St. Louis). The cell detachment from the culture flask was done using TrypLE^TM Express (Gibco) after washing two times with Dulbecco’s phosphate-buffered saline (DPBS). Subsequently, viable cells were counted using a Neubauer Improved C-Chip (NanoEnTek Inc., Seoul, Korea) after staining with 0.4% trypan blue solution. The drug-exposure viability assay was performed in accordance with the recommendation for the Cell Counting Kit-8 (CCK-8; Dojindo, Kumamoto, Japan). Briefly, in a 96-well plate, 100 µl of cells at a density of 5 × 10^4 cells/ml were seeded per well and allowed to attach to the plate for 24 h at 37 °C in a humidified incubator with 5% CO2. Ten microliters of drug diluted two-fold were added to each well to a final concentration of 0.781 to 800 µM in triplicate. Wells with only a culture medium were used as blanks, while wells containing cells and a medium with 0.5% DMSO were used as positive controls. Drug exposure lasted for 24 h. After 24 h, 10 µl of CCK-8 was added, and the plate was further incubated for 3 h. Absorbance was measured at 450 nm using a microplate reader.

[3] = test system: Madin-Darby bovine kidney (MDBK) cell line; test: cytotoxicity assay (CCK-8); format: cell-based; conditions: for EC50: MDBK cells, 24 h exposure, CCK-8
Procedure: as §3

[4] = test system: human foreskin fibroblast (HFF) cell line; test: cytotoxicity assay (CCK-8); format: cell-based; conditions: for EC50: HFF cells, 24 h exposure, CCK-8
Procedure: as §3

[5] = test system: B. bigemina (Argentina strain); test: in vitro growth inhibition assay (SYBR Green I fluorescence), single drug and 1:1 combination; format: cell-based, Babesia bigemina; conditions: for IC50: B. bigemina in vitro culture, 4 days
Procedure: as §1, §2

[6] = test system: Theileria equi (USDA strain); test: as above; format: cell-based; conditions: for IC50: T. equi in vitro culture, 4 days
Procedure: as §1
(§4) Assays were performed in accordance with the previously described protocol. Briefly, B. bovis, B. bigemina, B. divergens, B. caballi and T. equi cultures were harvested and adjusted to 1% parasitemia with fresh RBCs to start the inhibition assay. The assays were carried out using 96-well microtiter plates where only the 60 inner wells were used, while the peripheral wells were filled with sterile distillate water to reduce evaporation during incubation. In five 96-well plates, a volume of 2.5 µl each of B. bigemina- and B. bovis-iRBCs and 5 µl each of B. divergens-, B. caballi- and T. equi-iRBCs were added to each well in triplicate and mixed with a culture medium containing the drug concentrations to a total volume of 100 µl. Various concentrations of EA, β-CD EA, APSP EA, DA, CF and AQ were dissolved in a culture medium using two-fold dilution. Wells containing DMSO at a final concentration of 0.4% and iRBCs were used as a positive control, while wells with non-infected RBCs and culture medium were used as a negative control. Additionally, a drug combination assay was performed in parallel with the single drug assay at a constant ratio of 1:1, as described previously. […] The plates were incubated in a humidified incubator with 5% CO2, 5% O2 and 90% N2 for 4 days without changing the medium. On day 4, 100 µl of a lysis buffer containing 2 × SG1 was added to each well. The plates were wrapped with aluminum foil to avoid direct light exposure and incubated at room temperature. After 6 h, fluorescence values were measured using a fluorescence spectrophotometer (Fluoroskan Ascent; Thermo LabSystems, Oceanside, CA, USA) with excitation and emission wavelengths of 485 and 518 nm, respectively. The fluorescence data were subtracted from the negative control and used to calculate the IC50. To calculate the degree of association, the growth-inhibition values obtained were entered into CompuSyn software, based on the combination index (CI) values. […] The experiments were repeated three times.

[7] = test system: Babesia bovis (Texas strain); test: as above; format: cell-based; conditions: for IC50: B. bovis in vitro culture, 4 days
Procedure: as §1, §4

B. microti = test: nested PCR detection of B. microti ss-rRNA gene in blood of treated mice; format: in vivo, Babesia microti; conditions: day 42; 25 mg/kg DA
[8] = test system: Babesia microti (Munich strain); test: in vivo growth inhibition and drug combination assays in B. microti-infected BALB/c mice; conditions: for peak parasitemia level: 5 days
Procedure: as §1
In vivo growth inhibition assays of EA, β-CD EA and APSP EA were performed in B. microti-infected BALB/c mice in accordance with the previous protocol in two separate trials. […] The mice in groups 2–8 were intraperitoneally (i.p.) injected with 0.5 ml of inoculum (1 × 10^7 B. microti-iRBCs). Group 1 was left uninfected and untreated as a negative control. When the average parasitemia in all mice reached 1%, drug treatment was initiated for 5 consecutive days. […] DA at a concentration of 25 mg/kg body weight (BW) was administrated i.p. to the third group as a reference drug control.

B. caballi (USDA strain) = test: in vitro growth inhibition assay (SYBR Green I fluorescence), single drug and 1:1 combination; format: cell-based, Babesia caballi; conditions: for IC50: B. caballi in vitro culture, 4 days
Procedure: as §1, §2

P. falciparum = test system: P. falciparum; parameters: method as in PMID 19015354; conditions: cited from earlier work
L. major = test system: L. major; parameters: method as in PMID 28643086; conditions: cited from earlier work

CC(=O)NCC(=O)O.CC(=O)NCC(=O)O.N=C(N)c1ccc(N=NNc2ccc(C(=N)N)cc2)cc1 [DA, diminazene aceturate]
IC50 [1]: 0.43 ± 0.05 µM
inhibition of cell viability ([2]; 100 µM, separate assay): did not show any inhibition
EC50 [2]: > 100 µM
EC50 [3]: > 100 µM
inhibition of cell viability ([3]; MDBK, 100 µM, separate assay): did not show any inhibition
EC50 [4]: > 100 µM
inhibition of cell viability ([4]; HFF, 100 µM, separate assay): did not show any inhibition
IC50 [5]: 0.68 ± 0.09 µM
IC50 [6]: 0.71 ± 0.05 µM
IC50 [7]: 0.35 ± 0.06 µM
parasite DNA in blood (nPCR) (B. microti): not detected
peak parasitemia level ([8]; first assay, 25 mg/kg DA i.p., peak on day 8, DDW control 57.7%): 5.2%
day p.i. from which parasitemia was undetectable by microscopic examination ([8]; second assay, 25 mg/kg DA): 13 day p.i.
peak parasitemia level ([8]; second assay, 25 mg/kg DA i.p., DDW control 58.3%): 3.9%
IC50 (B. caballi (USDA strain)): 0.022 µM and 0.02 µM

O=c1oc2c(O)c(O)cc3c(=O)oc4c(O)c(O)cc1c4c23 [EA, Ellagic acid]
concentration that significantly inhibited the growth ([1]; B. divergens, t-test vs control): 0.125 µM
IC50 ([1]; Babesia divergens, 96 h): 5.41 ± 2.8 µM
Selective indices NIH/3T3 ([2]; EC50 NIH/3T3 / IC50 B. bigemina): > 101.3
Selective indices NIH/3T3 ([2]; EC50 NIH/3T3 / IC50 B. bovis): > 83.3
Selective indices NIH/3T3 ([2]; EC50 NIH/3T3 / IC50 B. divergens): > 148.1
Selective indices NIH/3T3 ([2]; EC50 NIH/3T3 / IC50 T. equi): > 106.7
EC50 ([2]; Mus musculus, NIH3T3): > 800 µM
inhibition of cell viability ([2]; 800 µM): did not show any inhibition
EC50 ([3]; Bos taurus, MDBK, 24 h): > 800 µM
Selective indices MDBK ([3]; EC50 MDBK / IC50 B. bigemina): > 101.3
Selective indices MDBK ([3]; EC50 MDBK / IC50 B. bovis): > 83.3
Selective indices MDBK ([3]; EC50 MDBK / IC50 B. divergens): > 148.1
Selective indices MDBK ([3]; EC50 MDBK / IC50 T. equi): > 106.7
inhibition of cell viability ([3]; MDBK, 800 µM): did not show any inhibition
Selective indices HFF ([4]; EC50 HFF / IC50 B. bigemina): > 101.3
Selective indices HFF ([4]; EC50 HFF / IC50 B. bovis): > 83.3
Selective indices HFF ([4]; EC50 HFF / IC50 B. divergens): > 148.1
Selective indices HFF ([4]; EC50 HFF / IC50 T. equi): > 106.7
EC50 ([4]; Homo sapiens): > 800 µM
concentration that significantly inhibited the growth ([5]; B. bigemina, t-test vs control): 0.078 µM
IC50 ([5]; Babesia bigemina, 96 h): 7.87 ± 5.8 µM
IC50 (P. falciparum): 0.33 µM
concentration that significantly inhibited the growth ([6]; T. equi, t-test vs control): 0.125 µM
IC50 ([6]; Theileria equi, 96 h): 7.46 ± 0.6 µM
concentration that significantly inhibited the growth ([7]; B. bovis, t-test vs control): 0.078 µM
IC50 ([7]; Babesia bovis, in Bos taurus, 96 h): 9.58 ± 1.47 µM
peak parasitemia level ([8]; first assay, 35 mg/kg EA i.p., peak on day 8, DDW control 57.7%): 29.5%
concentration that significantly inhibited the growth (B. caballi (USDA strain); B. caballi, t-test vs control): 0.125 µM
IC50 (B. caballi (USDA strain); Babesia caballi, 96 h): 3.29 ± 0.42 µM
IC50 (L. major): 9.8 μg/ml^e
